Measured values published in article PMC10353390, “Biological and Structural Analyses of New Potent Allosteric Inhibitors of HIV-1 Integrase” (Antimicrobial Agents and Chemotherapy, 2023).
Where two headings read alike, the source gives them in different places.

Key:
HIV-1 IN = target: T1, HIV-1 IN (Human immunodeficiency virus type 1 group M subtype B, UniProt P12497); experiment: HTRF IN multimerization assay; format: biochemical; conditions: mean ± SD
T1 construct: made in house
From the text: A key property of INLAIs is the ability to promote HIV-1 IN homo-multimerization ([39][–][42]). […] The maximal signal (plateau) in our IN aggregation assay corresponds to the highest HTRF signal increase under saturating INLAI concentration, relative to baseline level. Thus, MUT916, MUT884, MUT871, and MUT872 increased HIV-1 IN aggregation 3.7 to 4.4-fold, while BDM-2, BI-224436, and S-I-82 did so 5 to 6-fold (Table 1).

HXB2 HIV-1 strain = experiment: Multiple-round infection assay in MT4 cells, HXB2; format: cell-based; conditions: Human immunodeficiency virus 1, HXB2; multiple-round infection, MT4 cells; mean ± SD, n > 5; read-out: EC50 HXB2
Outline: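 MT4 cells at 10^6/mL were infected with HIV-1 at MOI 0.001 for 2 h in the presence of compound dilutions. Cell viability, measured by CellTiter-Glo luminescence, served as the read-out of protection in this multiple-round infection.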

NL4-3 HIV-1 strain = experiment: Multiple-round infection assay in MT4 cells, NL4-3; format: cell-based; conditions: MT4 cells
[1] = Cytotoxicity assay in MT4 cells; format: cell-based; conditions: human, MT4 cells (proliferating human T-cell line), CellTiter-Glo
From the text: Growth inhibition was monitored in a proliferating human T-cell line (MT4) with different concentrations of compounds, using the CellTiter-Glo luminescent reagent (Promega), as previously described ([12]).

[2] = tested on: lab-adapted and clinical HIV-1 isolates; experiment: Infection assays in primary T CD4+ lymphocytes; format: cell-based; conditions: Human immunodeficiency virus 1, Lymphocyte
[3] = tested on: VSV-G-pseudotyped NL4-3Δenv-luc; experiment: microbe, parasite or virus in culture; format: cell-based, HIV-1
[4] = tested on: recombinant NL4-3 viruses with polymorphisms at IN positions 124 and 125; experiment: Multiple-round infection of MT4 cells with recombinant NL4-3 viruses polymorphic at IN positions 124 and 125; format: cell-based, HIV-1
From the text: Located on the HIV-1 IN CCD dimerization interface, the principal INLAI binding pocket overlaps with a hot spot of amino acid sequence polymorphism involving IN residues 124 and 125 ([16]). To test if the new INLAIs maintained antiviral activity against major polymorphisms, we introduced all major combinations of residues found in circulating HIV-1 strains at positions 124 and 125 into NL4-3 HIV-1 molecular clone. In total, we evaluated 15 such combinations that collectively covered 98% of all HIV-1 clade polymorphisms involving these positions ([48]). To gauge effects on the antiviral activity, we calculated the EC50 fold change (FC) relative to wild type NL4-3 HIV-1 strain that features Thr124 and Thr125 (TT; specific polymorphisms are referred to by a single letter amino acid code).
(§1) MT4 cells growing exponentially at the density of 10^6/mL were infected with HIV-1 strain NL4-3 at a multiplicity of infection (MOI) of 0.001 for 2 h in the presence of different concentrations of compounds, and the CellTiter-Glo luminescent reagent (Promega) was used to quantify cell viability as described previously ([12]).

[5] = tested on: primary HIV-1 isolates with polymorphisms at IN positions 124 and 125; experiment: Multiple-round infection of MT4 cells with primary HIV-1 isolates polymorphic at IN positions 124 and 125; format: cell-based; conditions: primary isolate
Experimental: Next, we evaluated the potency of the BDM-2 series of INLAIs against several primary HIV-1 isolates with polymorphisms at IN positions 124 and 125.
as §1

[6] = tested on: HIV-1 strains resistant to INSTIs, NRTIs, NNRTIs or PIs; format: cell-based
Outline: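 NL4-3-based recombinant mutants and drug-resistant clinical isolates; exponentially growing MT4 cells (10^6/mL) infected at MOI 0.001 for 2 h with compound at varying concentrations. Protection quantified as cell viability by CellTiter-Glo luminescence.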

[7] = tested on: NL4-3 HIV-1 with INLAI-selected IN single point mutations; format: cell-based
[8] = target: HIV-1 IN-LEDGF/p75 interaction (Human immunodeficiency virus type 1 group M subtype B, UniProt P12497); experiment: biochemical
Experimental: (§2) The INLAIs were tested for the ability to inhibit the HIV-1 IN-LEDGF/p75 interaction in a homogeneous time-resolved fluorescence (HTRF) assay. Our assays used either full-length IN and LEDGF/p75 proteins or their respective minimally sufficient interaction domains: the CCD of HIV-1 IN and the IBD of LEDGF/p75 (Table 1).
(§3) HTRF-based CCD-IBD interaction, IN-LEDGF/p75 interaction and IN multimerization assays were performed as described previously ([12]).

[9] = target: CCD of HIV-1 IN and IBD of LEDGF/p75 (Human immunodeficiency virus type 1 group M subtype B, UniProt P12497); experiment: biochemical
Experimental: as §2, §3

[10] = INSTI-resistant, NL4-3 background

In the case of `Cc1ccc(C2CC2)c(-c2ccc3c(c2C)CCCO3)c1[C@H](OC1CC1)C(=O)O` [MUT884], the AC50 (HIV-1 IN; concentration for 50% maximum activation of multimerization) is reported as 0.022 ± 0.004 µM, the “IN multimerization Plateau” value (HIV-1 IN; maximum multimerization reached versus baseline) is reported as 400 ± 71% and the EC50 (HXB2 HIV-1 strain) is reported as 0.0063 ± 0.0011 µM. For the same molecule, the EC90 (NL4-3 HIV-1 strain; Human immunodeficiency virus 1, NL43, multiple-round infection, from dose response curves, read-out: EC90 NL4-3) was 0.023 ± 0.013 µM, the EC50 (NL4-3 HIV-1 strain; Human immunodeficiency virus 1, NL43, multiple-round infection, mean ± SD, n > 5, read-out: EC50 NL4-3) was 0.015 ± 0.005 µM and the “Selectivity index CC50/EC50 NL4-3” value (NL4-3 HIV-1 strain) was 5,200. For the same molecule, the CC50 [1] was 78 ± 12 µM, the EC50 ([2]; read-out: EC50 33913N (B)) was 0.0058 ± 0.0032 µM and the EC50 ([2]; read-out: EC50 HXB2 (B)) was 0.01 ± 0.006 µM. For the same molecule, the EC50 ([2]; read-out: EC50 KER2008 (A)) was 0.019 ± 0.003 µM, the EC50 ([2]; read-out: EC50 NL4-3 (B)) was 0.015 ± 0.004 µM and the EC50 ([2]; read-out: EC50 NP1525 (CRF01_AE)) was 0.012 ± 0.003 µM. For the same molecule, the EC50 ([2]; read-out: EC50 NP1538 (B)) was 0.041 ± 0.002 µM, the “EC50 ratio (single/multiple-round infection)” value [3] was 260 and the EC50 ([3]; Human immunodeficiency virus 1, NL43, MT4, read-out: EC50 in single-round infection) was 3.9 ± 0.8 µM. For the same molecule, the “Fold change in EC50 relative to parental NL4-3, AA” value ([4]; recombinant NL4-3, IN 124/125 AA) was 0.4, the “Fold change in EC50 relative to parental NL4-3, AM” value ([4]; recombinant NL4-3, IN 124/125 AM) was 0.2 and the “Fold change in EC50 relative to parental NL4-3, AT” value ([4]; recombinant NL4-3, IN 124/125 AT) was 1. The “Fold change in EC50 relative to parental NL4-3, AV” value ([4]; recombinant NL4-3, IN 124/125 AV) was 0.5, the “Fold change in EC50 relative to parental NL4-3, GA” value ([4]; recombinant NL4-3, IN 124/125 GA) was 1 and the “Fold change in EC50 relative to parental NL4-3, GT” value ([4]; recombinant NL4-3, IN 124/125 GT) was 2. The “Fold change in EC50 relative to parental NL4-3, NA” value ([4]; recombinant NL4-3, IN 124/125 NA) was 2, the “Fold change in EC50 relative to parental NL4-3, NT” value ([4]; recombinant NL4-3, IN 124/125 NT) was 1 and the “Fold change in EC50 relative to parental NL4-3, NV” value ([4]; recombinant NL4-3, IN 124/125 NV) was 1. For the same molecule, the “Fold change in EC50 relative to parental NL4-3, SA” value ([4]; recombinant NL4-3, IN 124/125 SA) was 1, the “Fold change in EC50 relative to parental NL4-3, ST” value ([4]; recombinant NL4-3, IN 124/125 ST) was 1 and the “Fold change in EC50 relative to parental NL4-3, TA” value ([4]; recombinant NL4-3, IN 124/125 TA) was 1. The “Fold change in EC50 relative to parental NL4-3, TM” value ([4]; recombinant NL4-3, IN 124/125 TM) was 0.2, the “Fold change in EC50 relative to parental NL4-3, TV” value ([4]; recombinant NL4-3, IN 124/125 TV) was 1 and the “Fold change in EC50 relative to parental NL4-3, CAM2BBY (CRF02)” value ([5]; IN 124/125 AA) was 1. The “Fold change in EC50 relative to parental NL4-3, E0836M4 (D)” value ([5]; IN 124/125 AA) was 1, the “Fold change in EC50 relative to parental NL4-3, KER2008 (A)” value ([5]; IN 124/125 AA) was 0.5 and the “Fold change in EC50 relative to parental NL4-3, NP1525 (CRF01)” value ([5]; IN 124/125 AA) was 1. For the same molecule, the “Fold change in EC50 relative to parental NL4-3, NP1695 (CRF02)” value ([5]; IN 124/125 AA) was 2, the “Fold change in EC50 relative to parental NL4-3, TZA125 (C)” value ([5]; IN 124/125 AA) was 0.3 and the “Fold change in EC50 relative to parental NL4-3, KSM4030 (A)” value ([5]; IN 124/125 GA) was 1. The “Fold change in EC50 relative to parental NL4-3, vGA (C)” value ([5]; IN 124/125 GA) was 5, the “Fold change in EC50 relative to parental NL4-3, 99ET14 (C)” value ([5]; IN 124/125 NA) was 1 and the “Fold change in EC50 relative to parental NL4-3, NP1538 (B)” value ([5]; IN 124/125 NA) was 3. The “Fold change in EC50 relative to parental NL4-3, vNA_1 (B)” value ([5]; IN 124/125 NA) was 3, the “Fold change in EC50 relative to parental NL4-3, vNA_2 (CRF02)” value ([5]; IN 124/125 NA) was 4 and the “Fold change in EC50 relative to parental NL4-3, vNV (B)” value ([5]; IN 124/125 NV) was 2. For the same molecule, the “Fold change in EC50 relative to parental NL4-3, vSA_1 (B)” value ([5]; IN 124/125 SA) was 2, the “Fold change in EC50 relative to parental NL4-3, vSA_2 (CRF02)” value ([5]; IN 124/125 SA) was 2 and the “Fold change in EC50 relative to parental NL4-3, vTA_1 (B)” value ([5]; IN 124/125 TA) was 1. The “Fold change in EC50 relative to parental NL4-3, vTA_2 (CRF02)” value ([5]; IN 124/125 TA) was 2, the “Fold change in EC50 relative to NL4-3, E92Q” value [6, 10] was 1 and the “Fold change in EC50 relative to NL4-3, G140S” value [6, 10] was 1. For the same molecule, the “Fold change in EC50 relative to NL4-3, G140S/Q148H” value [6, 10] was 1, the “Fold change in EC50 relative to NL4-3, N155H” value [6, 10] was 1 and the “Fold change in EC50 relative to NL4-3, Q148H” value [6, 10] was 1. For the same molecule, the “Fold change in EC50 relative to NL4-3, Y143R” value [6, 10] was 0.5, the “Fold change in EC50 relative to NL4-3, NLAY351717” value ([6]; NRTI-resistant clone) was 1 and the “Fold change in EC50 relative to NL4-3, NLAY351753” value ([6]; NRTI/NNRTI-resistant clone) was 1. For the same molecule, the “Fold change in EC50 relative to NL4-3, K103N/Y181C” value ([6]; NRTI/NNRTIs group, NL4-3 background) was 1, the “Fold change in EC50 relative to NL4-3, ARP-4595” value ([6]; PI-resistant virus) was 1 and the “Fold change in EC50 relative to NL4-3, ARP-4596” value ([6]; PI-resistant virus) was 1. The “Fold change in EC50 relative to NL4-3, ARP-11801” value ([6]; PI-resistant virus) was 3, the “Fold change in EC50 relative to NL4-3, ARP-11803” value ([6]; PI-resistant virus) was 2 and the “Fold change in EC50 relative to NL4-3, ARP-11807” value ([6]; PI-resistant virus) was 1. For the same molecule, the “Fold change in EC50 relative to NL4-3, ARP-11808” value ([6]; PI-resistant virus) was 2, the “EC50 fold change compared to wild type NL4-3, A128T” value [7] was 5 and the “EC50 fold change compared to wild type NL4-3, H171Q” value [7] was 1. The “EC50 fold change compared to wild type NL4-3, N222K” value [7] was 3, the “EC50 fold change compared to wild type NL4-3, T174I” value [7] was 12 and the “EC50 fold change compared to wild type NL4-3, Y99H” value [7] was 2. The IC50 [8] was 0.062 ± 0.009 µM and the IC50 [9] was 0.082 ± 0.021 µM.
